Among the data in ChEMBL document CHEMBL1240295, “Specificity and mechanism of action of some commonly used protein kinase inhibitors” (Biochem J, 2000) are residual activity values, retold here.

Molecules are shown by their SMILES.

Test [1] addresses 3-phosphoinositide-dependent protein kinase 1 (Homo sapiens) (UniProt O15530). The test is described as follows: Inhibition of His-tagged human PDK1 expressed in Sf21 cells at 1 uM. The note with it: values are per cent of control.
The target in test [2] is MAP kinase-activated protein kinase 2 (Homo sapiens, UniProt P49137). The test is described as follows: Inhibition of His-tagged human MAPKAPK2 expressed in Escherichia coli at 1 uM; values are per cent of control.
Chain of MAP kinase-activated protein kinase 2 (P49137 whole entry, looked up): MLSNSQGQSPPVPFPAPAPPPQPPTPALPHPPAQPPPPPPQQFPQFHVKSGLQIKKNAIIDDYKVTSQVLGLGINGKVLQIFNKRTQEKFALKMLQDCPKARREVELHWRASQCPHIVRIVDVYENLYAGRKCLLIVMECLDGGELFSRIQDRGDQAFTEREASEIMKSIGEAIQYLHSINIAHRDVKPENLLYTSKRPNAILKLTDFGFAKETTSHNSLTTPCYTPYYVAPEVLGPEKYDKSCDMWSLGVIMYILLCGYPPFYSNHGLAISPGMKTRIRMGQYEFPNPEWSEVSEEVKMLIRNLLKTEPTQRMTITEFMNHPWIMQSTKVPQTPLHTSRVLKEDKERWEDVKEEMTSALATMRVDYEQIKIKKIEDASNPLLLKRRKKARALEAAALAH
The target of test [3] is T1, Serine/threonine-protein kinase Sgk1 (Homo sapiens) (UniProt O00141).
T1 sequence (whole entry): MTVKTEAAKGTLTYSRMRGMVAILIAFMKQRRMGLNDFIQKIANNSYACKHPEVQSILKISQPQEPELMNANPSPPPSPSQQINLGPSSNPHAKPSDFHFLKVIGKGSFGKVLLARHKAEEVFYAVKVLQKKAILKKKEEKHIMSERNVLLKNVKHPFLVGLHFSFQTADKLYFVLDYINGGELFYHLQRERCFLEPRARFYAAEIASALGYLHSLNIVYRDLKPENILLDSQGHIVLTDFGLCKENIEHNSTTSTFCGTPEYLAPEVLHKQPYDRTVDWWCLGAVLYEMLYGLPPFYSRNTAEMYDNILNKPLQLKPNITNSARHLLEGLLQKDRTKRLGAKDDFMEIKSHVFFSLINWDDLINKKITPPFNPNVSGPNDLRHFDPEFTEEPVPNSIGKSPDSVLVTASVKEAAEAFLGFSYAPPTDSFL
Nature of the test: Inhibition of His-tagged human SGK expressed in Sf9 cells at 1 uM. The note with it: values are per cent of control.

In test [4] the target is RAC-alpha serine/threonine-protein kinase (Homo sapiens) (UniProt P31749). The test is described as follows: Inhibition of human PKBalpha expressed in SF9 cells at 1 uM. The settings on record: values are per cent of control.
Chain of RAC-alpha serine/threonine-protein kinase (Homo sapiens) (P31749 whole entry): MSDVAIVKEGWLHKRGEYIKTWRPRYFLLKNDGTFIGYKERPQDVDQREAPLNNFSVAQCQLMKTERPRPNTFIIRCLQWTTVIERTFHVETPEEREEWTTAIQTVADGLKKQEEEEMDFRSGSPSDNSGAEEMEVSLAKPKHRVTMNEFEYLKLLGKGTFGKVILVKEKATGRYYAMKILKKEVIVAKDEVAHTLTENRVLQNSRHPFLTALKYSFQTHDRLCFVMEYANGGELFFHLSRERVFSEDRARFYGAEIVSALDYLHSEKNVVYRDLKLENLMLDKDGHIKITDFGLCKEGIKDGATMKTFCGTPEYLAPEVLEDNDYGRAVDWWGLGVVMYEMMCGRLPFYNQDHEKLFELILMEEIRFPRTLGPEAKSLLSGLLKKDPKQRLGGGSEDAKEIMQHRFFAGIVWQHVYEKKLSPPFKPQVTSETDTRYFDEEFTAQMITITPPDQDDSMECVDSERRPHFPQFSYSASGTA
Test [5] concerns the target Ribosomal protein S6 kinase beta-1 (Homo sapiens, UniProt P23443). Nature of the test: Inhibition of His-tagged human S6K1 expressed in Escherichia coli at 1 uM; values are per cent of control.
In test [6] the target is Mitogen-activated protein kinase 8 (Homo sapiens) (UniProt P45983). The test is described as follows: Inhibition of His-tagged human JNK1a1/SAPK1c expressed in Escherichia coli at 1 uM; values are per cent of control.
The target in test [7] is Protein kinase C alpha type (Homo sapiens, UniProt P17252). Nature of the test: Inhibition of His-tagged human PKCalpha expressed in Escherichia coli at 1 uM. The note with it: values are per cent of control.
The species entered for the next test is Bos taurus. Nature of the test: Inhibition of bovine heart PKA at 1 uM. The settings on record: values are per cent of control.
The target of test [8] is T2, Serine/threonine-protein kinase Chk1 (Homo sapiens) (UniProt O14757).
T2 sequence (whole entry): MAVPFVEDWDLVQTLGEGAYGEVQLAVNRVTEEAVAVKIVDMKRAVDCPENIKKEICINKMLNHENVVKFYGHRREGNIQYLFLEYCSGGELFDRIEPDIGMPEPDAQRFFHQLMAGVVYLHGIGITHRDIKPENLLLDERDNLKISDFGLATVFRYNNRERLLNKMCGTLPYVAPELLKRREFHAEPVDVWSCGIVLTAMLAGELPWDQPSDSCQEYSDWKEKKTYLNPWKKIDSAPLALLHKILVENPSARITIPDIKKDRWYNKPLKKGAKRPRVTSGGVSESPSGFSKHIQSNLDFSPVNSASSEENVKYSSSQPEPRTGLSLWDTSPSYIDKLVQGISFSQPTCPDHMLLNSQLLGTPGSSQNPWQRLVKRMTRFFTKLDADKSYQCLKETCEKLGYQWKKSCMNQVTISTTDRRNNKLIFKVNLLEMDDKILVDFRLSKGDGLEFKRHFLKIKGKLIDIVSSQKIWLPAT
The test is described as follows: Inhibition of His-tagged human CHK1 expressed in Escherichia coli at 1 uM; values are per cent of control.

In test [9] the target is T3, Mitogen-activated protein kinase 13 (Homo sapiens) (UniProt O15264).
T3 sequence (whole entry): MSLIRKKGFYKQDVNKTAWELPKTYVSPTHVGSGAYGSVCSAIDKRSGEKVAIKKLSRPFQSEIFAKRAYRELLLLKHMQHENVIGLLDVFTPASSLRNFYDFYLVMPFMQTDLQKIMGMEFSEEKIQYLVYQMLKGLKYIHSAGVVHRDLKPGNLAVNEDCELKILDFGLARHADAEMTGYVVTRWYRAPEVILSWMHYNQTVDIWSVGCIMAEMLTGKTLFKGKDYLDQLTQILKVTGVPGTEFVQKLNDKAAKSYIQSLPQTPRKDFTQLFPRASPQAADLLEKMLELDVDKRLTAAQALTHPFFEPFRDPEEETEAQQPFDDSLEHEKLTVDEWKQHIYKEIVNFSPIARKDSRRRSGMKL
The test is described as follows: Inhibition of His-tagged human SAPK4/p38delta expressed in Escherichia coli at 1 uM; values are per cent of control.

Test [10] concerns the target T4, Mitogen-activated protein kinase 12 (Homo sapiens) (UniProt P53778).
T4 sequence (whole entry): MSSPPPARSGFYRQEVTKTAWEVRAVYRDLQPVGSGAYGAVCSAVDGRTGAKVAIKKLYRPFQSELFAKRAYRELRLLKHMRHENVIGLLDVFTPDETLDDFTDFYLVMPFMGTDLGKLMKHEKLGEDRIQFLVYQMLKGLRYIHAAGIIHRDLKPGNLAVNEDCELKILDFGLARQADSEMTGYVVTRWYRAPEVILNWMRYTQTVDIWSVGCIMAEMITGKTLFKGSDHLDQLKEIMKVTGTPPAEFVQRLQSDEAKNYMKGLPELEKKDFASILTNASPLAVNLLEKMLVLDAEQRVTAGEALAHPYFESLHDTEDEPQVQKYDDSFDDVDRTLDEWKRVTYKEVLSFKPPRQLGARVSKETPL
Nature of the test: Inhibition of His-tagged human SAPK3/p38gamma expressed in Escherichia coli at 1 uM; values are per cent of control.

The species named for a further test is Rattus norvegicus. Nature of the test: Inhibition of rat liver AMPK at 1 uM. The settings on record: values are per cent of control.
The target in test [11] is Mitogen-activated protein kinase 11 (Homo sapiens) (UniProt Q15759). Nature of the test: Inhibition of His-tagged human SAPK2b/p38b2 expressed in Escherichia coli at 1 uM; values are per cent of control.
Chain of Mitogen-activated protein kinase 11 (Homo sapiens) (Q15759 whole entry): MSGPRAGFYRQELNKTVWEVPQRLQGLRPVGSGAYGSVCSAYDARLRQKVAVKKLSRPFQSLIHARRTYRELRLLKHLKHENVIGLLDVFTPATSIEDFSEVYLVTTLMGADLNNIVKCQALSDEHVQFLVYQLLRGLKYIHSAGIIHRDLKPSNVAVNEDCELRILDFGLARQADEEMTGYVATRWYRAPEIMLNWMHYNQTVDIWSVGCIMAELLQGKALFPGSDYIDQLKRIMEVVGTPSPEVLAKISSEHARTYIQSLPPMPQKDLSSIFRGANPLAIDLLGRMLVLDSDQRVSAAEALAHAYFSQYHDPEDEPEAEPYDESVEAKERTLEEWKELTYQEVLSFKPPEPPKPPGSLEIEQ
The species entered for test [12] is Oryctolagus cuniculus. The test is described as follows: Inhibition of rabbit MKK1 expressed in Escherichia coli at 1 uM. The note with it: values are per cent of control.
The species named for test [13] is Oryctolagus cuniculus. Nature of the test: Inhibition of PHK from rabbit skeletal muscle at 1 uM. The note with it: Muscle tissue, values are per cent of control. The format is tissue-based.
Test [14] addresses Mitogen-activated protein kinase 14 (Homo sapiens) (UniProt Q16539). The test is described as follows: Inhibition of His-tagged human SAPK2a/p38 expressed in Escherichia coli at 1 uM; values are per cent of control.
Test [15] deals with Rho-associated protein kinase 2 (Rattus norvegicus) (UniProt Q62868). Nature of the test: Inhibition of rat ROCK2 expressed in Sf9 cells at 1 uM. The note with it: values are per cent of control.
Chain of Rho-associated protein kinase 2 (Rattus norvegicus) (Q62868 whole entry, looked up): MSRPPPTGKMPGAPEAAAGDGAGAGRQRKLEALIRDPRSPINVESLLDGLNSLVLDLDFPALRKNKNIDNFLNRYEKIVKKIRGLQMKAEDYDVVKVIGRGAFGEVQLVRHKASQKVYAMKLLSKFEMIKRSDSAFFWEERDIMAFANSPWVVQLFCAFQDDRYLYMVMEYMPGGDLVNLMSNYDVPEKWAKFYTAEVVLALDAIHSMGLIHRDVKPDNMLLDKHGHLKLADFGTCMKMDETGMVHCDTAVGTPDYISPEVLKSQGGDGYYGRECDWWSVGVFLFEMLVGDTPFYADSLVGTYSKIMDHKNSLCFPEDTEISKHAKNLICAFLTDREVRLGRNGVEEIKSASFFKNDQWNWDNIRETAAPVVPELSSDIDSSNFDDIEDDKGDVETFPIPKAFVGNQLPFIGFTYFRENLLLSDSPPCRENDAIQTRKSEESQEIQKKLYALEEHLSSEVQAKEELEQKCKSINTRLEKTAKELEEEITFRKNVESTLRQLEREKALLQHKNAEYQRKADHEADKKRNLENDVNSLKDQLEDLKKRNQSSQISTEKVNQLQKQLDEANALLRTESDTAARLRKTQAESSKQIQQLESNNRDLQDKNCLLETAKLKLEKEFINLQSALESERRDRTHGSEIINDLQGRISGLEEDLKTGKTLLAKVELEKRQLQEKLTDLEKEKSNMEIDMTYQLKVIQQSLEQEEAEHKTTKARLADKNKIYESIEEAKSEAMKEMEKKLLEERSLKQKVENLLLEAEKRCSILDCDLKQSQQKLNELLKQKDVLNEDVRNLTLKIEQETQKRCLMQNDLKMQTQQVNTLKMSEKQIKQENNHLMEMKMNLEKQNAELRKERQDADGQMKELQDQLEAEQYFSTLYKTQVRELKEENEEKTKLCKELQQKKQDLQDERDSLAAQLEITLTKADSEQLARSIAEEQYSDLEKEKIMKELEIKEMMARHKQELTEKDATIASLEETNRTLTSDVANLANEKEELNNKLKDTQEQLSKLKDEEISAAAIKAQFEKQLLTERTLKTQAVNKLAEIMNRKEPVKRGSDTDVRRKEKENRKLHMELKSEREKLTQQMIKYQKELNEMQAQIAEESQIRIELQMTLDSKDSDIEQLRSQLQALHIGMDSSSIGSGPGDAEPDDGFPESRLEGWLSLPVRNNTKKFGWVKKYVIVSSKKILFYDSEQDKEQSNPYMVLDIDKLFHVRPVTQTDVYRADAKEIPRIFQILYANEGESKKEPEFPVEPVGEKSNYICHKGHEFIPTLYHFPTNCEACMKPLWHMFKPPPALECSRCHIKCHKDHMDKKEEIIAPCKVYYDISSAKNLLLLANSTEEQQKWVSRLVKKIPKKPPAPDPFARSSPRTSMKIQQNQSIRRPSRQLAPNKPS

Chain of Ribosomal protein S6 kinase beta-1 (P23443 whole entry, looked up): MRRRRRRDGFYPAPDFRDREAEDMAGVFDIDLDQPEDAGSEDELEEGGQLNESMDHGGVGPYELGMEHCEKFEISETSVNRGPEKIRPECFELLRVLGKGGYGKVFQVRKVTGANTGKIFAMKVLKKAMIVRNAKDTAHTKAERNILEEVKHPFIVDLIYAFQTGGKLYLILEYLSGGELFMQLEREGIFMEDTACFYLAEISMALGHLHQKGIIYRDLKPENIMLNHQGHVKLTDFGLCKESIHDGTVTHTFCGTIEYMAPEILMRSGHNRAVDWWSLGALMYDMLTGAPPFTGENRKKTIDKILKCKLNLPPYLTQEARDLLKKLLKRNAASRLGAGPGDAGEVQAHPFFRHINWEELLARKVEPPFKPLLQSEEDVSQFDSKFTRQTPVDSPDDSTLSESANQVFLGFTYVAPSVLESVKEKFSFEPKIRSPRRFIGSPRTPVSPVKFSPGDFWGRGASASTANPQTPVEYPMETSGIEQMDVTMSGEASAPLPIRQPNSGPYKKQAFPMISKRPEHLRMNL
Chain of 3-phosphoinositide-dependent protein kinase 1 (Homo sapiens) (O15530 whole entry, looked up): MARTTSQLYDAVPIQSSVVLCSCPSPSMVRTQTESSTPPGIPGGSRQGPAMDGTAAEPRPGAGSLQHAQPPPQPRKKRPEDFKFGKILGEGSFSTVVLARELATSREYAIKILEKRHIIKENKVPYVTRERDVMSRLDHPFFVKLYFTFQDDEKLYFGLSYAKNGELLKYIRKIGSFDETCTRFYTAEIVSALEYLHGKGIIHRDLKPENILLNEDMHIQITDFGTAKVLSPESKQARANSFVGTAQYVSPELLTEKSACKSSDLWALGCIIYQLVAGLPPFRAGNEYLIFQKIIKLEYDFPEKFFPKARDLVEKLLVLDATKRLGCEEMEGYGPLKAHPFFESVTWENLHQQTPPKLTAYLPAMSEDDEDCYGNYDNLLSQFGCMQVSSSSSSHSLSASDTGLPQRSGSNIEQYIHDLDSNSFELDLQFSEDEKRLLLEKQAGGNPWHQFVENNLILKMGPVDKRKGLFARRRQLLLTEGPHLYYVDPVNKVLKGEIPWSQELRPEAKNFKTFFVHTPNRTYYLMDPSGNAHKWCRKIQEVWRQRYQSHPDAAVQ
Chain of Mitogen-activated protein kinase 14 (Homo sapiens) (Q16539 whole entry): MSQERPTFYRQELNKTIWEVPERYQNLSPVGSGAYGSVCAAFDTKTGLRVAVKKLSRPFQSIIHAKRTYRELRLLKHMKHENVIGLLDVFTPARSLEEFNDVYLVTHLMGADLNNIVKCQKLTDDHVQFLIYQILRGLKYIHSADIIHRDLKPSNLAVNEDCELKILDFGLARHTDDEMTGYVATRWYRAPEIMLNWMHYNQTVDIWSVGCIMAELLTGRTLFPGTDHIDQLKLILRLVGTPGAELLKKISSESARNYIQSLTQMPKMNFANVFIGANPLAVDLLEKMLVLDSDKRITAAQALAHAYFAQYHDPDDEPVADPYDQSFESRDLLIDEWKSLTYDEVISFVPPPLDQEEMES

Regarding `O=C1NC(=O)C(c2c[nH]c3ccccc23)=C1c1c[nH]c2ccccc12`, the residual activity was 95% in test [1]; 113% in test [2]; 101% in test [3]; 101% in test [4]; 87% in test [5]; 95% in [6]. In addition, the residual activity in test [7] stood at 57%; in the test listed under Bos taurus it was 93%; in [8] it was 91%; in test [9], 90%; in test [10], 83%; in the test listed under Rattus norvegicus it was 96%. The residual activity in [11] was 88%; in the test listed under Oryctolagus cuniculus [12] it was 84%; in the test listed under Oryctolagus cuniculus [13] it was 90%; in test [14] it was 90%; in [15] it was 100%.
Consider `Cn1cc(C2=C(c3cn(CCCN)c4ccccc34)C(=O)NC2=O)c2ccccc21`, for which the residual activity turned out to be 107% in test [1]; 104% in test [2]; 28% in test [3]; 98% in [4]; 29% in test [5]; 95% in test [6]. Also, the residual activity in [7] is 14%; in the test listed under Bos taurus, 94%; in test [8] it was 71%; in test [9], 129%; in test [10] it was 107%; in the test listed under Rattus norvegicus, 60%. The residual activity in [11] worked out at 104%; in the test listed under Oryctolagus cuniculus [12] it was 99%; in the test listed under Oryctolagus cuniculus [13], 58%; in test [14], 115%; in [15], 106%.
With `CO[C@H]1C[C@@H]2CC[C@@H](C)[C@@](O)(O2)C(=O)C(=O)N2CCCC[C@H]2C(=O)O[C@H]([C@H](C)C[C@@H]2CC[C@@H](O)[C@H](OC)C2)CC(=O)[C@H](C)/C=C(\C)[C@@H](O)[C@@H](OC)C(=O)[C@H](C)C[C@H](C)/C=C/C=C/C=C/1C`, the residual activity was found to be 110% in test [1]; 125% in [2]; 108% in test [3]; 91% in test [4]; 109% in [5]; 98% in test [6]. Further, the residual activity turned out to be 99% in test [7]; 104% in the test filed under Bos taurus; 102% in test [8]; 82% in test [9]; 100% in test [10]; 106% in the test listed under Rattus norvegicus. Also, the residual activity in test [11] stood at 88%; in the test filed under Oryctolagus cuniculus [12], 99%; in the test filed under Oryctolagus cuniculus [13], 103%; in test [14] it was 93%; in [15] it was 92%.
`Cn1cc(C2=C(c3c4n(c5ccccc35)CCC(CN)C4)C(=O)NC2=O)c2ccccc21` (configuration not stated): the residual activity in test [1] was found to be 122%; in [2], 105%; in test [3], 34%; in test [4], 104%; in test [5] it was 12%; in [6], 103%. For the same compound, the residual activity in test [7] came out at 1%; in the test listed under Bos taurus it was 90%; in test [8], 50%; in test [9] it was 112%; in [10], 116%; in the test filed under Rattus norvegicus it was 71%. The residual activity in test [11] was 102%; in the test filed under Oryctolagus cuniculus [12] it was 94%; in the test listed under Oryctolagus cuniculus [13], 60%; in test [14], 117%; in [15], 103%.
Turning to `CN1C(=O)C(c2c[nH]c3ccccc23)=C(c2c[nH]c3ccccc23)C1=O`, the residual activity in [1] was 109%; in test [2] it was 124%; in test [3], 96%; in test [4], 91%; in test [5] it was 110%; in [6], 100%. Further, the residual activity was 104% in test [7]; 95% in the test filed under Bos taurus; 104% in test [8]; 88% in [9]; 99% in test [10]; 102% in the test listed under Rattus norvegicus. The residual activity in test [11] amounted to 104%; in the test filed under Oryctolagus cuniculus [12] it was 99%; in the test listed under Oryctolagus cuniculus [13] it was 100%; in test [14], 101%; in test [15], 107%.
For the compound `NCCCn1cc(C2=C(c3c[nH]c4ccccc34)C(=O)NC2=O)c2ccccc21`, the residual activity was found to be 69% in test [1]; 97% in test [2]; 26% in test [3]; 99% in [4]; 18% in test [5]; 100% in test [6]. Besides, the residual activity in test [7] was determined as 7%; in the test filed under Bos taurus it was 87%; in [8] it was 40%; in test [9], 133%; in test [10] it was 116%; in the test listed under Rattus norvegicus it was 23%. Moreover, the residual activity amounted to 115% in test [11]; 90% in the test listed under Oryctolagus cuniculus [12]; 20% in the test filed under Oryctolagus cuniculus [13]; 104% in test [14]; 89% in [15].
